The source of these data is patent publication US11883430B2, “CD38-NAD+ regulated metabolic axis in anti-tumor immunotherapy” (MUSC FOUNDATION FOR RESEARCH DEVELOPMENT, priority 2016, dated 2024).

In one assay the test system is NAD+. The assay is described as follows: Intracellular NAD+ level. The note with it: Th1/17 differentiated with 2DG 1 mM, DON 3 μM or FK866 10 nM (FIGS. 11K, 11L). It is filed as cell-based, mouse. On the procedure:
NAD^+, Sirt1 activity and Foxo1 activity assay: Intracellular NAD^+ level in T cells were measured spectrophotometrically following the manufacturer's protocol (Cayman chemical, Ann Arbor, MI). Using equal amounts of nuclear protein extracted by NE-PER Nuclear and Cytoplasmic Extraction Reagents (Thermo Fisher Scientific, Waltham, MA), Sirt1 activity (Universal Sirt1 Activity Assay Kit, Abcam, Cambridge, MA) and Foxo1 activity (FKHR transcription Factor Assay Kit, Active Motif, Carlsbad, CA) were determined as per manufacturer's protocol.

In assay [1] the test system is Th1 cells. The assay is described as follows: Intracellular cytokine (IFNγ, IL17) flow cytometry after PMA and ionomycin. It counts as cell-based, mouse. The following applies: Th1 subsets (FIGS. 12A and 12B). On the procedure:
FIGS. 12A-12D: Loss of Sirt1 expression and NAD+ levels on Th1/17 cell phenotype and function (see FIG. 5). (A) Purified CD4^+ T cells from C57BL/6 were used to differentiate to Th1/17 cells either alone or in the presence of Ex527, a pharmacological inhibitor of Sirt1. Cells were then restimulated with PMA and ionomycin for 4 hr in presence of golgi block to stain for intracellular accumulation of cytokines IFNγ and IL17. (B) Th1 cells were cultured either in presence or absence of NAD+ inhibitor FK866 (10 nM) and intracellular staining was performed for IFNγ and IL17. Data was acquired using FACS and analysis was carried out using FlowJo software. (C-D) Purified splenic CD4^+ T cells from either C57BL/6 WT or Sirt1fl/flCD4Cre (Sirt1KO) mouse were used to ex vivo program for Th1/17 cells. RNA was prepared and quantitative PCR analysis was performed for the expression of various glycolysis (C) and glutaminolysis (D) associated genes in either WT or Sirt1KO Th1/17 cells. Data in section A-D are representative of three independent experiments.
T cell differentiation: Naïve CD4^+ T cells were purified from the total splenocytes of 6-9 weeks old WT (C57BL/6) and KO (Foxo1^fl/flLck^cre, Sirt1^fl/flCD4^cre, CD38KO) mice using CD4^+ T cell isolation kit (Miltenyi Biotec) according to manufacturer's protocol. […]
In general terms: A flow cytometer gives signals particle by particle.

Assay [2] has as its system Th1/17 cells. The assay is described as follows: qPCR gene expression in Th1/17 cells. It counts as cell-based, mouse. The note with it: Th1/17 differentiated with FK866 10 nM or Ex527 (FIGS. 4D, 5D). On the procedure: Real-time quantitative-PCR: Total RNA was extracted from pellets of the indicated T cell subsets (2×10^6 cells) using Trizol reagent (Life technologies, Grand Island, NY). cDNA was generated from 1 μg total RNA using iScript cDNA Synthesis Kit (BioRad, Hercules, CA). SYBR Green incorporation quantitative real-time PCR was performed using a SYBR Green mix (Biorad, Hercules, CA) in the CFX96 Detection System (BioRad, Hercules, CA). Expression of different genes was quantified relative to Actb.

The test system of assay [3] is Th1/17 cells. The assay is described as follows: Intracellular cytokine (IFNγ, IL17) flow cytometry after PMA and ionomycin. It counts as cell-based, mouse. The following applies: WT T cells programmed in presence of Ex527; sentence says both Th17 and Th1/17 cells (FIG. 12A). An excerpt: T cell differentiation: Naïve CD4^+ T cells were purified from the total splenocytes of 6-9 weeks old WT (C57BL/6) and KO (Foxo1^fl/flLck^cre, Sirt1^fl/flCD4^cre, CD38KO) mice using CD4^+ T cell isolation kit (Miltenyi Biotec) according to manufacturer's protocol. Total splenocytes from 6-9 weeks old TCR transgenic mouse TRP-1 (bears class-II restricted CD4^+ T cells) or Pmel (bears class-I restricted CD8^+ T cells) or TCR-I (bears class-I restricted CD8^+ T cells) were also used. Within experiments mice were age and sex matched. Purified naïve CD4^+ T cells or total splenocytes were differentiated to Th1 or Tc1 (10 ng/ml IL12, 50 U/ml IL2 and 10 μg/ml anti-IL4), Th17 or Tc17 (3 ng/ml TGFβ, 25 ng/ml IL6, 10 μg/ml anti-IL4 and 10 μg/ml anti-IFNγ), Th1/17 or Tc1/17 (20 ng/ml IL1β, 25 ng/ml IL6, 10 ng/ml IL12, 20 ng/ml IL23, 400 pg/ml TGFβ, 10 μg/ml anti-IL4, 5 μg/ml anti-IFNγ), iTreg (5 ng/ml TGFβ, 100 IU/ml IL2, 10 μg/ml anti-IL4 and 10 μg/ml anti-IFNγ or Th0 (50 IU/ml IL2) in presence of plate bound anti-CD3 (5 μg/ml) and anti-CD28 (5 μg/ml). For TRP-1, gp100 or Sv40 specific generation of different Th or Tc subsets, total splenocytes from either TRP-1, Pmel or TCR-I TCR transgenic mice were stimulated with 1 μg/ml respective peptides in presence of above-mentioned polarizing conditions. T cells were differentiated for three days in IMDM media supplemented with 10% FCS, 4 mM L-glutamine, 100 U/ml penicillin, 100 μg/ml streptomycin, 55 μM beta-mercaptoethanol under 7% CO2, atmospheric oxygen at 37° C. in a humidified incubator. For evaluation of intracellular cytokines by flow cytometry, T cells were re-stimulated with PMA (500 ng/ml) and Ionomycin (500 ng/ml) for 4 hr in presence of Glogi inhibitors. […]
Flow cytometry: Staining for cell surface markers was performed by incubating cells with antibody at 1:200 dilutions in FACS buffer (0.1% BSA in PBS) for 30 min at 4° C. […] Samples were acquired on LSRFortessa and analysed with FlowJo software (Tree Star, OR).

The subject of assay [4] is B16-F10-HLA-A2+ murine melanoma. The assay is described as follows: Adoptive T cell transfer, s.c. B16-F10-HLA-A2+ melanoma, tumor growth. It counts as in vivo, mouse. The note with it: Th1/17 differentiated ex vivo with FK866 or Ex527 vs untreated/vehicle (FIGS. 4E, 5F).
Assay [5] has as its system Th1 cells. The assay is described as follows: Seahorse oxygen consumption rate with etomoxir. It counts as cell-based, mouse. The following applies: etomoxir 200 μM (FIG. 3J). From the text: (§1) FIGS. 3A-3P: Hybrid Th1/17 cells are metabolically distinct from Th1 and Th17 cells and depend upon glutaminolysis. The ex vivo programmed Th1, Th17 and Th1/17 cells were used to determine: (A) Glucose uptake using 2NBDG. Adjacent bar diagram represents the cumulative data of mean fluorescence intensity (MFI) from three independent experiments. (B) ECAR time course in response to glucose, oligomycin and 2DG (left panel). […] (C) Intracellular expression of GAPDH by FACS. Adjacent bar represents cumulative data from 3 experiments. (D) Glycolysis associated genes using qPCR. Genes including Glut1, HKI, HKII, Pfkb1, Pkm2, and LdhA are lower in Th1/Th17 while Pfkb3 and Pgam 1 are higher. (E-G) Oxygen consumption rate (OCR) under basal condition and in response to indicated mitochondrial inhibitors. Graphs representing time course (E), basal OCR (F), and OCR/ECAR ratio (G). (H) Expression of CTP1a using qPCR. […] (M) Uptake of radiolabelled glutamine that was measured in count per minute (CPM). […] (P) TRP-1 Th1/17 cells differentiated either in presence of vehicle control (DMSO) or DON (3 μM) were adoptively transferred (0.5×10^6) in 9 days s.c. established B16-F10 melanoma tumor bearing mice and tumor growth was measured. […]
(§2) Oxygen consumption rate (OCR) and Extracellular acidification rate (ECAR) was determined using Seahorse Xfe96 analyser (Agilent Technologies, Santa Clara, CA). […] OCR, a measure of OXPHOS, was analysed under basal condition or in response to 200 μM Etomoxir (Sigma-Aldrich, St. Louis, MO) followed by 1.0 μM oligomycin (Sigma-Aldrich, St. Louis, MO), 1.0 μM fluoro-carbonyl cyanide phenylhydrazone (FCCP) (Sigma-Aldrich, St. Louis, MO) and 2 μM rotenone (Sigma-Aldrich, St. Louis, MO) plus 100 nM antimycin A (Sigma-Aldrich, St. Louis, MO). ECAR, a measure of glycolysis was measured under basal conditions and in response to glucose (5.5 mM), Oligomycin (1.0 μM), 2-deoxyglucose (2-DG) (100 mM) (Sigma-Aldrich, St. Louis, MO).

Assay [6] relates to Th1/17 cells. The assay is described as follows: Seahorse oxygen consumption rate with etomoxir. It is filed as cell-based, mouse. The note with it: etomoxir 200 μM (FIG. 3K).
Text: as §1, §2

Another assay has as its system Th17 cells. The assay is described as follows: Seahorse oxygen consumption rate with etomoxir. It counts as cell-based, mouse. The note with it: etomoxir 200 μM (FIG. 3I).
Text: as §1, §2

In the case of `O=CC[C@@H](O)[C@H](O)[C@H](O)CO` [2DG, 2-Deoxy-D-glucose], in the assay with NAD+, the “NAD+ levels in Th1/17 cells” value was “increased the NAD^+ level in Th1/17 cells”.
With `NC(=O)C1CCCc2c1[nH]c1ccc(Cl)cc21` (centres unmarked) [Ex527], the IFNγ secreting fraction result in the assay with Th1 cells [1] is “No significant difference”. In the assay with Th1/17 cells [2], the “expression of stemness-associated genes” value is recorded as “markedly reduced”. The “frequency of IL17+ population” value with Th1/17 cells [3] is “decreased frequency of IL17^+ population”. In addition, the “tumor control by inhibitor-treated Th1/17 cells upon adoptive transfer” value in assay [4] is “reduced ability to control tumor growth as compared to the vehicle treated cells”.
As for `CCOC(=O)[C@@]1(CCCCCCOc2ccc(Cl)cc2)CO1` [etomoxir], the OXPHOS entry with Th1 cells [5] and with Th1/17 cells [6] was “mostly unaffected” in each case. Also, the “OCR and SRC values” with Th17 cells is “significantly depleted OCR and SRC values”.
